In patent publication US4879381A, “7-(substituted or unsubstituted amino) 3-substituted methyl-^3 cephem-4-carboxylic acid” (Toyoma Chemical Company, Ltd., priority 1980, dated 1989) one finds LD50 and MIC data, which are given here for five compounds.

Structures can show the parent of a compound that is named as a salt. Where two headings read alike, the source gives them in different places.

A short description of data set [1]: in vivo. To be noted: mouse, intravenous, mice. From the text: Three test compounds were introvenously administered to mice (ICR, male, 4 weeks old) to test their acute toxicities.
Data set [2] has as its system Ser. marcescens IID620. Briefly: Antibacterial activity (MIC, agar plate). The format is cell-based. Conditions: Serratia marcescens. On the procedure: (§1) According to the standard method of the Japanese Chemotherapeutic Society [Chemotherapy, Vol. 23, Pages 1-2 (1975)], a culture obtained by cultivating bacteria in Heart Infusion broth (manufactured by Eken Kagakusha) at 37° C. for 20 hours was inoculated into a Heart Infusion agar medium (manufactured by Eiken Kagakusha) and cultivated at 37° C. for 20 hours, after which the growth of bacteria was examined visually. The minimum inhibitory concentration at which the bacterial growth was inhibited was taken as MIC (μg/ml). The amount of the inoculated bacteria was 10^4 cells/plate (10^6 cells/ml).

For data set [3], the system named is Aci. calcoaceticus A-6. Briefly: Antibacterial activity (MIC, agar plate). The format is cell-based. Conditions: Acinetobacter calcoaceticus, A6, 10^4 cells/plate, 37° C., 20 hours, read-out: MIC. On the procedure: as §1
Data set [4] deals with Al. faecalis B-1. Briefly: Antibacterial activity (MIC, agar plate). The format is cell-based. To be noted: Alcaligenes faecalis. On the procedure: as §1
Data set [5] has as its system Pro. morganii T-216. Briefly: Antibacterial activity (MIC, agar plate). Format: cell-based. To be noted: Morganella morganii. On the procedure: as §1
Data set [6] relates to Klebsiella spp Y-72. Briefly: Antibacterial activity (MIC, agar plate). Format: cell-based. On the procedure: as §1
The test system of data set [7] is E. coli TK3 (Penicillinase-producing bacteria). Nature of the data set: Antibacterial activity (MIC, agar plate). Format: cell-based. Conditions: Escherichia coli. On the procedure: as §1
Data set [8] deals with Kl. pneumoniae Y-41. Nature of the data set: Antibacterial activity (MIC, agar plate). The format is cell-based. Conditions: Klebsiella pneumoniae, Y41; Kl. pneumoniae Y-41; 10^4 cells/plate, 37° C., 20 hours; read-out: MIC. On the procedure: as §1
Data set [9] deals with Pro. mirabilis T-100. Briefly: Antibacterial activity (MIC, agar plate). Format: cell-based. Conditions: Proteus mirabilis, T100, 10^4 cells/plate, 37° C., 20 hours, read-out: MIC. On the procedure: as §1
Data set [10] has as its system Pro. vulgaris GN76 (Cephalosporinase-producing bacteria). Briefly: Antibacterial activity (MIC, agar plate). To be noted: Proteus vulgaris. Format: cell-based. On the procedure:
as §1

The test system of data set [11] is Ent. cloacae IID977. Nature of the data set: Antibacterial activity (MIC, agar plate). The format is cell-based. Conditions: Enterobacter cloacae, 10^4 cells/plate, 37° C., 20 hours, read-out: MIC. On the procedure: as §1
In data set [12] the test system is Kl. pneumoniae Y-50. Briefly: Antibacterial activity (MIC, agar plate). To be noted: Klebsiella pneumoniae, Y50, 10^4 cells/plate, 37° C., 20 hours, read-out: MIC. Format: cell-based. On the procedure:
as §1

Data set [13] concerns Pro. mirabilis T-111. Nature of the data set: Antibacterial activity (MIC, agar plate). The format is cell-based. To be noted: Proteus mirabilis, T111, 20 h. On the procedure:
as §1

Data set [14] concerns E. coli NIHJ. Briefly: Antibacterial activity (MIC, agar plate, standard method of the Japanese Chemotherapeutic Society). Conditions: Escherichia coli, 10^4 cells/plate, 37° C., 20 hours, read-out: MIC. Format: cell-based. On the procedure: as §1
The mark [15] stands for this setting: B1, Al. faecalis B-1, 10^4 cells/plate, 37° C., 20 hours, read-out: MIC.
Where [16] appears, read: Y72, Klebsiella spp Y-72, 10^4 cells/plate, 37° C., 20 hours, read-out: MIC.
[17] abbreviates: Pro. vulgaris GN76 (cephalosporinase-producing), 10^4 cells/plate, 37° C., 20 hours, read-out: MIC.
The mark [18] stands for this setting: E. coli TK3 (penicillinase-producing), 10^4 cells/plate, 37° C., 20 hours, read-out: MIC.

As to `Cc1nnn(CC2=C(C(=O)O)N3C(=O)C(NC(=O)Cc4csc(N)n4)C3SC2)n1` (centres unmarked), the LD50 (as a rule, the dose at which mortality reaches 50%) in data set [1] is more than 3000 mg/kg.

As for `CO/N=C(\C(=O)NC1C(=O)N2C(C(=O)O)=C(CNC(=O)c3ccco3)CSC12)c1csc(N)n1` (stereo not drawn) [B, Trifluoroacetic acid salt of 7-[2-(2-aminothiazol-4-yl)-2-(syn)-methoxyiminoacetamido]-3-(furan-2-yl-carboxamido)methyl-Δ^3-cephem-4-carboxylic acid], the MIC (commonly the lowest concentration that inhibits growth of the organism) is 0.2 µg/mL in [2] (IID620, 20 h); 25 µg/mL in [3]; 12.5 µg/mL in [4] (setting [15]); 0.39 µg/mL in [5] (T216, 20 h); 1.56 µg/mL in [6] (setting [16]); 0.39 µg/mL in [7] (20 h). Also, the MIC is 0.2 µg/mL in data set [8]; not above 0.1 µg/mL in data set [9]; 0.78 µg/mL in data set [10] (GN76, 20 h); 25 µg/mL in data set [11]; not above 0.1 µg/mL in data set [12]; 0.2 µg/mL in data set [13]. In [14], the MIC is not above 0.1 µg/mL.

`CO/N=C(\C(=O)NC1C(=O)N2C(C(=O)O)=C(CNC(C)=O)CSC12)c1csc(N)n1` (stereo not drawn) [C, Trifluoroacetic acid salt of 7-[2-(2-aminothiazol-4-yl)-2-(syn)-methoxyiminoacetamido]-3-acetamidomethyl-Δ^3-cephem-4-carboxylic acid]: the MIC in data set [2] (Ser. marcescens IID620, 10^4 cells/plate, 37° C., 20 hours, read-out: MIC) is 1.56 µg/mL; in [3], 12.5 µg/mL; in data set [4] (setting [15]), 12.5 µg/mL; in [5] (T216, Pro. morganii T-216, 10^4 cells/plate, 37° C., 20 hours, read-out: MIC), 0.78 µg/mL; in [6] (setting [16]), 6.25 µg/mL; in data set [7] (20 h), 0.39 µg/mL. Moreover, the MIC in [8] is 0.2 µg/mL; in data set [9] it was not above 0.1 µg/mL; in data set [10] (setting [17]), 6.25 µg/mL; in data set [11], 50 µg/mL; in data set [12] it was not above 0.1 µg/mL; in [13], 0.39 µg/mL. Besides, the MIC in [14] is not above 0.1 µg/mL.

As to `CO/N=C(\C(=O)NC1C(=O)N2C(C(=O)O)=C(Cc3ccc(O)cc3)CSC12)c1csc(N)n1` (stereo not drawn) [D, Trifluoroacetic acid salt of 7-[2-(2-aminothiazol-4-yl)-2-(syn)-methoxyiminoacetamido]-3-(4-hydroxybenzyl)-Δ^3-cephem-4-carboxylic acid], the MIC in data set [2] (IID620, 20 h) was 3.13 µg/mL; in [3] it was 6.25 µg/mL; in data set [4] (setting [15]) it was 25 µg/mL; in data set [5] (T216, 20 h), 0.78 µg/mL; in [6] (setting [16]), 6.25 µg/mL; in data set [7] (setting [18]) it was 1.56 µg/mL. The MIC is 0.78 µg/mL in data set [8]; not above 0.1 µg/mL in [9]; 1.56 µg/mL in data set [10] (setting [17]); 25 µg/mL in [11]; 0.2 µg/mL in data set [12]; 0.78 µg/mL in data set [13]. In data set [14], the MIC was not above 0.1 µg/mL.

As for `Cc1nnn(CC2=C(C(=O)O)N3C(=O)C(NC(=O)/C(=N\O)c4csc(N)n4)C3SC2)n1` (stereo not drawn) [E, Trifluoroacetic acid salt of 7-[2-(2-aminothiazol-4-yl)-2-(syn)-hydroxyiminoacetamido]-3-(2-(5-methyl-1,2,3,4-tetrazolyl)methyl]-Δ^3-cephem-4-carboxylic acid], the MIC in [2] (IID620, 20 h) is 3.13 µg/mL; in data set [3], 50 µg/mL; in data set [4] (B1, 20 h), 3.13 µg/mL; in data set [5] (T216, 20 h), not above 0.1 µg/mL; in [6] (Klebsiella, Y72, 20 h) it was 3.13 µg/mL; in [7] (setting [18]), 0.78 µg/mL. In addition, the MIC in [8] is 0.2 µg/mL; in data set [9], not above 0.1 µg/mL; in data set [10] (setting [17]) it was 6.25 µg/mL; in [11], 6.25 µg/mL; in [12] it was not above 0.1 µg/mL; in data set [13], 0.39 µg/mL. For the same compound, the MIC in data set [14] is not above 0.1 µg/mL.
